The subject of test [1] is rat heart preparations. As to the kind of experiment: tissue PRPP concentration of rat heart preparations in anoxic conditions. The conditions noted are these: ribose added to the medium. The text has this: Perhaps of greater significance was our observation of the decline in cellular PRPP in a range of tissues, including heart, in experimental diabetes (see Table 1).

In test [2] the test system is myocardial adenine nucleotides. The conditions noted are these: cited from earlier work.
For test [3], the system named is IPG P-type. As to the kind of experiment: extractable IPG P-type from tissues before and after insulin (PDH phosphatase assay). The format is in vivo, rats. The conditions noted are these: 2 minutes after injection with insulin. As for the experimental part:
FIGS. 4C and 4D show the steady state concentration and the effect of insulin on extractable IPG P-type from heart and other tissues from adult male rats. […] The solid columns show results in the absence of insulin, while the hatched columns show results 2 minutes after injection with insulin. 1 unit is the amount of P-type IPG causing a 50% increase in the activity of PDH phosphatase or a 50% decrease in the activity of cAMP dependent protein kinase.
Under anoxic conditions, this is difficult since the enzyme PDH kinase is activated. The action of this enzyme is to inactivate the PDH complex, which is involved in the biosynthesis of acetyl-CoA and NADH. The NADH so generated in the reperfusion period is oxidized by the electron transport chain to generate ATP. The acetyl-CoA is a substrate for the Krebs cycle in which one glucose can be oxidized to 36 ATPs via the generation of further NADH. The action of IPG-P type mediators is to activate PDH phosphatase which counteracts the PDH kinase and allows for activation of the PDH complex.

As for `O=C[C@H](O)[C@H](O)[C@H](O)CO` [ribose], the “tissue PRPP concentration” value in test [1] was “partially restored”. The “restitution of myocardial adenine nucleotides” value in test [2] (Zimmer (1980)) is recorded as “accelerated”. Further, the global heart function result in test [2] (overloaded and catecholamine-stimulated heart and infarcted heart rat models, Zimmer (1996)) is reported as “improvement in global heart function”. The “normalisation of depressed heart function” value in test [2] (rats, Zimmer (1983)) is listed as “accelerated”.
Consider insulin, for which the “IPG P-type activity recovered from tissue upon insulin infusion” value in test [3] (adipose tissue) is “decreased activity”; in test [3] (brain) it was “decreased activity”; in test [3] (heart), “decreased activity”; in test [3] (kidney), “increase in activity”; in test [3] (muscle), “increase in activity”.

The values are drawn from patent US6900182B1, “Inositolphosphoglycan and ribose for treatment of ischaemia-reperfusion injury” (Sylus Pharmaceuticals Ltd., priority 1998, dated 2005).
